As for `COCC1CN(c2ccc(C3CCC(OC(c4ccccc4)c4ccccc4)CC3)cc2)C(=O)O1` (racemic), the melting point (in general, the temperature of the solid-liquid transition) fell in the range of 146 to 148 °C. With `CC(c1oc2ccccc2c(=O)c1-c1cccc(F)c1)n1nc(-c2ccc(O)c(O)c2)c2c(N)ncnc21` (centres undefined) the figure was 193 to 195 °C; with `COc1ccc(-c2cc(NC(=O)Nc3ccc(Cl)cc3)on2)cc1`, 165 to 170 °C; with `CN(CCOc1ccc(CC(Cl)C(N)=O)cc1)c1nc2ccccc2o1` (centres undefined), 149 to 151 °C. Turning to `COc1c(CN(C)C)c2c(c3c1OC(C)(C)C3)C(c1ccccc1)=NC(C)(C)C2`, the melting point lay in the range of 124 to 125 °C. `Cc1cc([N+](=O)[O-])nc(C)c1C(N)=O` displayed a melting point of 179 to 180 °C.

In the case of `COC(=O)c1cn2c(-c3ccc(-c4ccccc4)cc3)csc2n1`, the melting point was 186 to 188 °C.

The compound `N#Cc1ccc(Oc2cc3c(cc2Cl)C=C(C(=O)O)C(C(F)(F)F)O3)cc1` (centres undefined) displayed a melting point of 212 to 216 °C.

`O=C1c2nccnc2C(O)N1c1ccc(Cl)cn1` (centres undefined) yielded a melting point of 236 °C. With `Brc1cccc(Nc2ncnc3cc4c(cc23)OC(CN2CCOCC2)CO4)c1` (centres undefined) the figure was 229 to 230 °C; with `ICCOc1ccc(C2=C(c3ccccc3)CCCc3ccccc32)cc1`, 154 to 156 °C; with `O=C1c2ccccc2C(=O)N1CCCCN(CCCCN1C(=O)c2ccccc2C1=O)CCOc1cccc2c1SCCC2`, 66 °C. With `O=Cc1cc2ccccc2nc1N1CCN(CC2CCCCC2)CC1` the figure was 54 to 55 °C; with `CN(C)CCNC(=O)c1c2ccccc2nc2c1[nH]c1ccccc12`, 175 to 176 °C; with `O=[N+]([O-])c1ccc(Cl)c(F)c1O`, 73 °C. In turn, `CCOC(=O)c1c(C(F)(F)F)nc(C(F)(F)F)c(C(=O)O)c1OCC` registered a melting point of 115 to 117 °C. With `CC1(CCn2c(=O)oc3ccccc32)Cn2cc([N+](=O)[O-])nc2O1` (centres undefined) the figure was 193 to 195 °C. Under `Cc1c(C)c2c(c(C)c1N)[C@H](c1ccc(C(C)C)cc1)[C@H](C)O2` (relative stereo) stands 91 to 92 °C; under `COc1cc2oc(=O)c3c(c2cc1OC)CCNC3`, 186 to 188 °C. With `COc1c(N(C)C)cc(CC(C#N)=CNc2ccccc2)cc1N(C)C` the figure was 103 to 105 °C; with `CCCCC[C@@H](CNC(=O)Nc1c(OC(C)C)c(C)nn1C)c1cccc2c1OCO2`, 123 to 124 °C.

`CCOC(=O)c1cnc2c(c1O)CC(CC)CC2` (centres undefined) came in with a melting point of 218 to 220 °C. Under `CC(C)(C)ONC(=O)C(C)(C)CCOc1ccc(C2=NNC(=O)CC2)cc1Cl` stands 133 to 135 °C; under `CCc1ccc2c3c(ccc(C=O)c13)-c1ccccc1-2`, 114 to 116 °C; under `COc1cccc2c1C13CCN(C(=O)OCC(Cl)(Cl)Cl)C(C2)C1(C(=O)OCC(Cl)(Cl)Cl)CCC(=O)C3` (centres undefined), 115 to 116 °C. With `COC(=O)c1nc(C)n2c1CNC(c1ccccc1)c1cc(Cl)ccc1-2` (centres undefined) the figure was 233 to 235 °C. Under `CC(C)C(=O)O[C@@H](OC(=O)ON1C(=O)[C@H](OC(=O)c2ccccc2)[C@@H](OC(=O)c2ccccc2)C1=O)C(C)C` stands 138 to 140 °C.

As to `COC(=O)Cc1ccc(C(F)(F)F)cc1[N+](=O)[O-]`, the melting point is 104 to 105 °C. With `COC(=O)C1=C(C)NC(C)=C(C(=O)OCCCCCCCC#N)C1c1cccc([N+](=O)[O-])c1` (centres undefined) the figure was 151 to 152 °C. With `O=C(O)CCCc1ccc(-c2ccc(F)cc2Cl)cc1` the figure was 81 to 82 °C; with `O=c1[nH]c2cscc2c(=O)n1CCN1CCN(c2ccc(Cl)cc2)CC1`, more than 250 °C. In the case of `CN(C)C(=O)C(C)(C)c1cc(C#N)ccc1O`, the melting point is 146 to 148 °C. As to `O=C(CCN1CCN(Cc2ccccc2)CC1)c1ccc2[nH]c(=O)oc2c1`, the melting point is more than 300 °C.

`N#CCSc1nc(NCc2ccc3c(c2)OCO3)cc(-c2ccccc2)n1`: the melting point was in the range of 140 to 142 °C.
